Values of other authors in patent US10077293B2, “Antimicrobial peptide analogues derived from abalone (Haliotis discus) and antimicrobial pharmaceutical composition containing the same” (priority 2016, dated 2018).
“Also recorded” adds a separate entry of the source.

Tests used:
[1] = tested on: Gram positive and Gram negative bacteria; settings: background statement; cited from earlier work
[2] = tested on: C. albicans; settings: parent peptide, background statement; cited from earlier work

What does the source list for “hdMolluscidin (AATKPKKAGAEAAPKKPAKKQTKKKPAKKAGGKKKPKRAGAKKAKK; listed as Haliotis discus) [antimicrobial peptide consisting of 46 amino acids, purified from the gill of abalone (Haliotis discus); parent peptide]”?
antimicrobial activity against Gram positive and Gram negative bacteria (in words) [1]: strong antimicrobial activity; antimicrobial activity against C. albicans (in words) [2]: little antimicrobial activity; also recorded: no activity
